Test results as given in patent US10793563B2, “GCN2 inhibitors and uses thereof” (Merck Patent GmbH, priority 2018, dated 2020).

target: GCN2 kinase (Homo sapiens (Human), UniProt Q9P2K8); assay: GCN2 Enzyme Inhibition Assay (Transcreener ADP2 fluorescence polarization); type: biochemical; conditions: 280 μM ATP, 200 μM (RS)7 peptide, 4 nM GCN2, 25° C.
Description: Compounds were screened for their ability to inhibit GCN2 kinase activity using a Transcreener® ADP^2 fluorescence polarization assay that detects ADP levels (BellBrook Labs, WI). Assays were carried out in a buffer consisting of 25 mM Tris-HCl (pH 7.5), 50 mM NaCl, 10 mM MgCl2 and 1 mM DTT. […] Assays were carried out at 25° C. in the presence of a (typical) final concentration of 4 nM GCN2 kinase. An assay buffer containing GCN2 kinase and (RS)7 was prepared. […] The plate was incubated for 10 minutes at 25° C. prior to the addition of 4.7 μL of ATP stock buffer to initiate the enzyme reaction. The reaction was allowed to proceed for 1 hour at 25° C., prior to the addition of 10 μL detection buffer (consisting of appropriate concentrations of ADP^2 antibody and ADP Alexa633 tracer in 1× stop and detect buffer as supplied by BellBrook Labs). […] Percentage inhibition of enzyme activity was then calculated at each compound dose. IC50 and Ki(app) (using known assay and kinetic parameters) values were calculated from percentage inhibition data using a non-linear, tight-binding algorithm. All data analysis was undertaken using the Screener® software package (Genedata, Switzerland).

Chain of GCN2 kinase (Q9P2K8 whole entry): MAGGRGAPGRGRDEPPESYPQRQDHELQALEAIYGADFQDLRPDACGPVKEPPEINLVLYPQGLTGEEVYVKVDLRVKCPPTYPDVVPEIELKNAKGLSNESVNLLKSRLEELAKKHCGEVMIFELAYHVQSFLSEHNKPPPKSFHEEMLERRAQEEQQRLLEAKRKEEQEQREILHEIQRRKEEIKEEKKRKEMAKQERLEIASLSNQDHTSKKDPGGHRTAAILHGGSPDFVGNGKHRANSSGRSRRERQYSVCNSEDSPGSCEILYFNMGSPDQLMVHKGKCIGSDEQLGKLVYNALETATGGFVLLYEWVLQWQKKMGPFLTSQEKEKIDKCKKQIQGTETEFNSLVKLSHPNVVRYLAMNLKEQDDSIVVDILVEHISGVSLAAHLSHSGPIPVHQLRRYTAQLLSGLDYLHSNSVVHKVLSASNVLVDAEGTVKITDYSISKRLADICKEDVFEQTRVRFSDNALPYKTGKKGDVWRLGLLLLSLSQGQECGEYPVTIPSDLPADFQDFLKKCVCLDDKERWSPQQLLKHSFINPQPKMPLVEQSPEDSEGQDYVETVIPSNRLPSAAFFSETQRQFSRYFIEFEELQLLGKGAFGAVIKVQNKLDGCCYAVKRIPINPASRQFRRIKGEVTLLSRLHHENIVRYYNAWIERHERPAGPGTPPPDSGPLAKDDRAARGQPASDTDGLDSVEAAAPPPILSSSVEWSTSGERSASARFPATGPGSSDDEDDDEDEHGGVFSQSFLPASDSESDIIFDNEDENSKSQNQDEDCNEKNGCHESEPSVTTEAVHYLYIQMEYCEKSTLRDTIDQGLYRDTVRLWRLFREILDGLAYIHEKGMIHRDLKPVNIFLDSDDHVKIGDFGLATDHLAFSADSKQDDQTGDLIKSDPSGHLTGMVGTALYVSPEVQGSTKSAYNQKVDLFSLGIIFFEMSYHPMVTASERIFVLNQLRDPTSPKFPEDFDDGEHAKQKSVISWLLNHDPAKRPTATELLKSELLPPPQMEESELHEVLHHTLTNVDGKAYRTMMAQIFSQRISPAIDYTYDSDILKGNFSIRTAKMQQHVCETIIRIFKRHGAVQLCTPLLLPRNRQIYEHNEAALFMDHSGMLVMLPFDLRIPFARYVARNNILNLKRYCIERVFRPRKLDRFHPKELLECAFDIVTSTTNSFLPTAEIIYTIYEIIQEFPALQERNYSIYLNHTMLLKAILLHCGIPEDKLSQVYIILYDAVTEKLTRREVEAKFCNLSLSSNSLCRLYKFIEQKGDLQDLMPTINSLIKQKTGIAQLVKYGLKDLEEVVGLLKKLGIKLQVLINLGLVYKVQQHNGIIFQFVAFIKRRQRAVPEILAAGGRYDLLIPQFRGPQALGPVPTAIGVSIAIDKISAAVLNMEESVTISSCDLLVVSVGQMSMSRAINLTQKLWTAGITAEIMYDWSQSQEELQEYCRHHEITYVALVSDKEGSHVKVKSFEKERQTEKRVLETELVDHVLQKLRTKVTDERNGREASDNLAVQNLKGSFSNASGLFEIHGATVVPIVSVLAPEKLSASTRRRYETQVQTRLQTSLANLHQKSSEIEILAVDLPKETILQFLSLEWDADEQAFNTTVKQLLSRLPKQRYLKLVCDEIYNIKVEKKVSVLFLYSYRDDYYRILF

Compound | IC50
C[C@@H]1CN(c2ccnc(-c3cnc4ccc(C(F)(F)F)cn34)n2)C[C@H](C)N1C(=O)c1ccncc1 [I-483, (cis-2,6-dimethyl-4-(2-(6-(trifluoromethyl)imidazo[1,2-a]pyridin-3-yl)pyrimidin-4-yl)piperazin-1-yl)(pyridin-4-yl)methanone] | 100 to 1000 nM
O=C1CCC[C@@H](C(=O)N2CCN(c3ccnc(-c4cnc5ccc(C(F)(F)F)cn45)n3)C[C@@H]2c2cn[nH]c2)N1 [I-474, (S)-6-((S)-2-(1H-pyrazol-4-yl)-4-(2-(6-(trifluoromethyl)imidazo[1,2-a]pyridin-3-yl)pyrimidin-4-yl)piperazine-1-carbonyl)piperidin-2-one] | 100 to 1000 nM
CC(C)(O)C(=O)N1CCN(c2ccnc(-c3cnc4ccc(C(F)(F)F)cn34)n2)CC1c1cn[nH]c1 (stereo not shown) [I-514, 1-(2-(1H-pyrazol-4-yl)-4-(2-(6-(trifluoromethyl)imidazo[1,2-a]pyridin-3-yl)pyrimidin-4-yl)piperazin-1-yl)-2-hydroxy-2-methylpropan-1-one] | 100 to 1000 nM
Cc1nn(C)cc1[C@H]1C[C@@H](C)CN(c2nccc(-c3cnc4ccc(C(F)(F)F)cn34)n2)C1 [I-142, 3-(2-((3R,5R)-3-(1,3-dimethyl-1H-pyrazol-4-yl)-5-methylpiperidin-1-yl)pyrimidin-4-yl)-6-(trifluoromethyl)imidazo[1,2-a]pyridine] | 100 to 1000 nM
Cc1cnc(N2C[C@H](C)C[C@H](N=S(C)(C)=O)C2)nc1-c1cnc2ccc(Cl)cn12 [I-167, (((3 S,5R)-1-(4-(6-chloroimidazo[1,2-a]pyridin-3-yl)-5-methylpyrimidin-2-yl)-5-methylpiperidin-3-yl)imino)dimethyl-λ6-sulfanone] | 100 to 1000 nM
Cc1oncc1C(=O)N1CCN(c2ccnc(-c3cnc4ccc(C(F)(F)F)cn34)n2)C[C@H]1c1cn[nH]c1 [I-550, (R)-(2-(1H-pyrazol-4-yl)-4-(2-(6-(trifluoromethyl)imidazo[1,2-a]pyridin-3-yl)pyrimidin-4-yl)piperazin-1-yl)(5-methylisoxazol-4-yl)methanone] | 100 to 1000 nM
O=C(O)C1(O)CCCN(c2ccnc(-c3cnc4ccc(C(F)(F)F)cn34)n2)C1 (stereo not shown) [I-214, 3-hydroxy-1-(2-(6-(trifluoromethyl)imidazo[1,2-a]pyridin-3-yl)pyrimidin-4-yl)piperidine-3-carboxylic acid] | 100 to 1000 nM

Results, then the compound that gave them:

IC50 | Compound
100 to 1000 nM | CS(=O)(=O)NCC1NCCN(c2ccnc(-c3cnc4ccc(C(F)F)cn34)n2)C1C(F)(F)F (stereo not shown) [I-496, N-((4-(2-(6-(difluoromethyl)imidazo[1,2-a]pyridin-3-yl)pyrimidin-4-yl)-3-(trifluoromethyl)piperazin-2-yl)methyl)methanesulfonamide]
100 to 1000 nM | Cc1oncc1C(=O)N1CCN(c2ccnc(-c3cnc4ccc(C(F)(F)F)cn34)n2)CC1c1cn[nH]c1 (stereo not shown) [I-515, (2-(1H-pyrazol-4-yl)-4-(2-(6-(trifluoromethyl)imidazo[1,2-a]pyridin-3-yl)pyrimidin-4-yl)piperazin-1-yl)(5-methylisoxazol-4-yl)methanone]
10 to 100 nM | CC1(C(N)=O)CCN(c2ccnc(-c3cnc4ccc(C(F)(F)F)cn34)n2)CC1 [I-188, 4-methyl-1-(2-(6-(trifluoromethyl)imidazo[1,2-a]pyridin-3-yl)pyrimidin-4-yl)piperidine-4-carboxamide]
100 to 1000 nM | O=C(N[C@H]1C[C@H](O)CN(c2ccnc(-c3cnc4ccc(C(F)(F)F)cn34)n2)C1)c1cn[nH]c1 [I-257, N-((3S,5S)-5-hydroxy-1-(2-(6-(trifluoromethyl)imidazo[1,2-a]pyridin-3-yl)pyrimidin-4-yl)piperidin-3-yl)-1H-pyrazole-4-carboxamide]
100 to 1000 nM | C[C@@H]1C[C@H](N=S(C)(C)=O)CN(c2ccnc(-c3cnc4ccc(N5CC(F)C5)cn34)n2)C1 [I-330, (((3 S,5R)-1-(2-(6-(3-fluoroazetidin-1-yl)imidazo[1,2-a]pyridin-3-yl)pyrimidin-4-yl)-5-methylpiperidin-3-yl)imino)dimethyl-λ6-sulfanone]
10 to 100 nM | FC1(F)CCC(N2CCN(c3ccnc(-c4cnc5ccc(C(F)(F)F)cn45)n3)CC2c2cn[nH]c2)CC1 (stereo not shown) [I-460, 3-(4-(4-(4,4-difluorocyclohexyl)-3-(1H-pyrazol-4-yl)piperazin-1-yl)pyrimidin-2-yl)-6-(trifluoromethyl)imidazo[1,2-a]pyridine]
10 to 100 nM | CC1CN(c2ccnc(-c3cnc4ccc(C(F)(F)F)cn34)n2)CCC1n1cccn1 (stereo not shown) [I-379, 3-(4-(3-methyl-4-(1H-pyrazol-1-yl)piperidin-1-yl)pyrimidin-2-yl)-6-(trifluoromethyl)imidazo[1,2-a]pyridine]
10 to 100 nM | C[C@@H]1CN(c2ccnc(-c3cnc4ccc(C(F)(F)F)cn34)n2)C[C@@H](C(N)=O)O1 [I-265, (2S,6R)-6-methyl-4-(2-(6-(trifluoromethyl)imidazo[1,2-a]pyridin-3-yl)pyrimidin-4-yl)morpholine-2-carboxamide]
< 10 nM | CC1C(C(N)=O)NCCN1c1ccnc(-c2cnc3ccc(C(F)(F)F)cn23)n1 (stereo not shown) [I-380, 3-methyl-4-{2-[6-(trifluoromethyl)imidazo[1,2-a]pyridin-3-yl]pyrimidin-4-yl}piperazine-2-carboxamide]
10 to 100 nM | CC1C(C(N)=O)NCCN1c1ccnc(-c2cnc3ccc(C(F)F)cn23)n1 (stereo not shown) [I-378, 4-(2-(6-(difluoromethyl)imidazo[1,2-a]pyridin-3-yl)pyrimidin-4-yl)-3-methylpiperazine-2-carboxamide]
10 to 100 nM | O=C(O)CC1CCCN(c2ccnc(-c3cnc4ccc(C(F)(F)F)cn34)n2)C1 (stereo not shown) [I-165, 2-(1-(2-(6-(trifluoromethyl)imidazo[1,2-a]pyridin-3-yl)pyrimidin-4-yl)piperidin-3-yl)acetic acid]
10 to 100 nM | N#CC1(C(=O)N2CCN(c3ccnc(-c4cnc5ccc(C(F)(F)F)cn45)n3)CC2c2cn[nH]c2)CC1 (stereo not shown) [I-432, 1-(2-(1H-pyrazol-4-yl)-4-(2-(6-(trifluoromethyl)imidazo[1,2-a]pyridin-3-yl)pyrimidin-4-yl)piperazine-1-carbonyl)cyclopropane-1-carbonitrile]
10 to 100 nM | CC(=O)N1CCN(c2ccnc(-c3cnc4ccc(C(F)(F)F)cn34)n2)CC1(C)C [I-336, 1-(2,2-dimethyl-4-(2-(6-(trifluoromethyl)imidazo[1,2-a]pyridin-3-yl)pyrimidin-4-yl)piperazin-1-yl)ethan-1-one]

same assay, conditions: Ki(app); 280 μM ATP, 200 μM (RS)7 peptide, 4 nM GCN2, 25° C.

Compound | Ki
CC1C(C(N)=O)NCCN1c1ccnc(-c2cnc3ccc(C(F)(F)F)cn23)n1 (stereo not shown) [I-380, 3-methyl-4-{2-[6-(trifluoromethyl)imidazo[1,2-a]pyridin-3-yl]pyrimidin-4-yl}piperazine-2-carboxamide] | < 10 nM
O=C1OCCC2CN(c3ccnc(-c4cnc5ccc(Cl)cn45)n3)CCN12 (stereo not shown) [I-98, 2-(2-{6-chloroimidazo[1,2-a]pyridin-3-yl}pyrimidin-4-yl)-octahydropyrazino[1,2-c][1,3]oxazin-6-one] | 10 to 100 nM
C[C@@H]1CN(c2ccnc(-c3cnc4ccc(C(F)(F)F)cn34)n2)[C@H](C)[C@H](c2cn[nH]c2)N1 (stereo in doubt) [I-38, 3-[4-[2,5-dimethyl-3-(1H-pyrazol-4-yl)piperazin-1-yl]pyrimidin-2-yl]-6-(trifluoromethyl)imidazo[1,2-a]pyridine] | 10 to 100 nM
N[C@H]1CCCN(c2ccnc(-c3cnc4ccc(Cl)cn34)n2)C1 [I-87, (3S)-1-(2-{6-chloroimidazo[1,2-a]pyridine-3-yl}pyrimidin-4-yl)piperidin-3-amine] | 100 to 1000 nM
O=C1NCCC2CN(c3ccnc(-c4cnc5ccc(Cl)cn45)n3)CCN12 (stereo not shown) [I-96, 2-(2-{6-chloroimidazo[1,2-a]pyridin-3-yl}pyrimidin-4-yl)-octahydro-1H-pyrazino[1,2-c]pyrimidin-6-one] | < 10 nM
